Experimental data: patent publication US6673770B1, “Peptides for the treatment, prophylaxis, diagnosis and monitoring of autoimmune diseases” (Upither B.V., priority 1998, dated 2004)
Ends that are not written are not given here.

Experiments:
[1] = test system: adjuvant arthritis; experiment: Nasal peptide administration in the adjuvant arthritis model; type: in vivo, rats; conditions: for Day of onset / Arthritis score: 100 μg peptide nasal at days 0, 3, 7, 11, mean±sd, n=4 rats; for Arthritis score: scale 0-16
Method: The potential arthritis protective qualities of selected peptides/proteins are tested through nasal or oral tolerance induction in the adjuvant arthritis model.
* Adjuvant arthritis is induced at day 0 by immunisation of MT/IFA (5 mg/ml MT) at the base of the tail. At days 0, 3, 7 and 11, 100 μg peptide in 10 μl saline is administered in the nostrils. Arthritis is scored upon clinical examination on a scale from 0-16. Data are expressed as mean±sd (n=4 rats/group).

[2] = test system: DTH reaction; experiment: Delayed type hypersensitivity reaction after peptide/DDA immunisation; type: in vivo, rats; conditions: challenge day 72, peptide/saline s.c. in ear; measured 24 and 48 hr
Method: # DTH (Delayed type hypersensitivity) reactions are induced at day 72 after immunisation of peptide/DDA, by subcutaneous injection of the peptide/saline in the ear. DTH are measured 24 and 48 hr after challenge.

[3] = test system: arthritis; experiment: Arthritis induction by immunisation with peptide in DDA adjuvant; type: in vivo; conditions: rats with clinical arthritis/rats immunised; 50 μg peptide in 100 μl DDA, one hind footpad
Method: To check the arthritogenic potential of the selected peptides, rats are immunised with 50 μg peptide in 100 μl DDA adjuvant in one hind footpad. […] Two of the five peptides show defined clinical arthritis. * Arthritis is induced by Immunisation of 50 μg peptide in 100 μl DDA adjuvants in one hind footpad and scored upon clinical examination.

[4] = test system: T cell clone A2b; experiment: Recognition by A2b T-cell clone: proliferation and/or activation marker expression; type: cell-based, Lewis rats; conditions: positive: proliferation more than 2 times background in 2 of 4 experiments and/or activation marker upregulation in 2 of 3 experiments
Method: As an immediate read-out for mimicry peptides T-cell activation is measured by proliferation, TcR downregulation, expression of activation markers, and cytokines responses of clone A2b. In addition A2b-like T cells from arthritic rats are isolated, and activation of such cells is measured by, proliferation, TcR downregulation, expression of activation markers, and cytokines responses. Furthermore, T-cell lines are generated after immunisation with MT/IFA or selected peptides/DDA. The cross-reactive nature of the peptide specific T-cell responses is analysed in vitro by determining the recognition of both the self peptide as well as the mycobacterial hsp65 178-186 peptide. After testing the panel of n=65 peptides for induction of proliferation of T cell clone A2b, and/or induction of expression of activation markers, n=20 peptides (SEQ ID NOs: 15, 19, 20, 21, 22, 23, 24, 26, 30, 31, 32, 33, 35, 49, 51, 61, 63, 65, 67, 69) were considered positive. Criteria for positivity were that in 2 out of 4 experiments the induced proliferation was more than 2 times background proliferation as measured by ^3H-thymidine incorporation, and/or that in 2 out of 3 experiments upregulation of an activation marker was detectable by FACS analysis.

[5] = test system: T cells from inguinal and popliteal lymph nodes and spleen; experiment: T-cell recognition (proliferation) during adjuvant arthritis time course; type: cell-based, Lewis rats; conditions: positive: proliferation more than 1.5 times background in more than 25% of organs; days 14, 19, 21, 32, 39
[6] = molecular target: T1, MHC class II RT1.B^L (Rattus norvegicus, UniProt P20037+P29826); experiment: MHC-peptide competition binding assay on isolated RT1.B^L molecules; set-up: species or system Lewis rat
T1 sequence (P20037 24-256): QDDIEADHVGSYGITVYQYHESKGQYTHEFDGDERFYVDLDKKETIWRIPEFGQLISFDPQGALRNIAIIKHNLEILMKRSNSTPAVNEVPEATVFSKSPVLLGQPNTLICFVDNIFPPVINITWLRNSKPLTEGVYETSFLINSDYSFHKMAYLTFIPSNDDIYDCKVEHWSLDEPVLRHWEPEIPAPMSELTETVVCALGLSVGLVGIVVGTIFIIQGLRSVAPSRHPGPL
T1 sequence (P29826 28-263): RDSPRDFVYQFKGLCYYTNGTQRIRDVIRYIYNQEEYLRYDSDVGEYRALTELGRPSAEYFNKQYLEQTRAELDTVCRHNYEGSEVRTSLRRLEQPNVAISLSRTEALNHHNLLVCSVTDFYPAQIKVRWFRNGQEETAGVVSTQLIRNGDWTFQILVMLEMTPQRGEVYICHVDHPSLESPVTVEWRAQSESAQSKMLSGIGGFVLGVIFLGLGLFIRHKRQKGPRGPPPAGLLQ
From the text: Because the rat self-antigen to which the A2b T-clone is reactive is not known at present time, the present inventors have designed a computer search strategy based on the interactions of the mycobacterial hsp65 178-186 peptide within the trimolecular complex of MHC class II (RT1.B^L)-mycobacterial hsp65 178-186-T-cell receptor of clone A2b, to identify relevant candidate arthritis-associated antigens that can serve as target for autoimmune T-cell mediated tissue destruction in arthritis. Within the mycobacterial hsp65 178-186 sequence, residues involved in MHC binding have been identified by using an MHC-peptide binding assay on isolated MHC class II RT1.B^L proteins. The residues which have an important role in determining the RT1.B^L binding affinity of the mycobacterial hsp65 178-186 peptide, the so-called MHC anchor residues were determined. By studying the MHC-peptide binding affinities of other non-related peptides, a general MHC-peptide binding motif for the Lewis rat RT1.B1 molecule was defined (Wauben et al., Int. Immunol. 9:281 (1997)). For the definition of residues within the minimal core sequence mycobacterial hsp65 180-186, interacting with the T-cell receptor of the A2b T cell clone, the results derived from MHC-peptide binding assays, and proliferation assays of the A2b T cell clone were integrated.
#RT1.B^L binding affinity is expressed as 50%ID (=inhibitory dose). The 50%ID value indicates the concentration of peptide needed to inhibit 50% binding of the marker peptide in a competition assay on isolated RT1.B^L molecules.

[7] = test system: peripheral blood lymphocytes (PBL) of RA/JCA patients; experiment: 6-days proliferation assay on PBLs of RA and JCA patients; type: cell-based, human; conditions: number of patients with PBL proliferation >2 times background; 15-mers at 1 μg/ml and 10 μ/ml
Method: T-cell responses to the selected peptides in patients are analysed by studying T-cell proliferation of peripheral blood lymphocytes (PBL) and synovial fluid derived cells. […] In these human studies the peptides are tested as 15-mers containing the 9-mer sequence of Table 2 as core sequence. […] This is further strengthened by the fact that, the patients were not selected for having a certain MHC haplotype. The MHC binding affinity of the selected peptides is analysed for the most-common MHC class II-arthritis associations. In Table 3 the peptide binding affinity for DRB1*0401 is shown as an example. The peptide binding affinity is tested in a MHC-peptide competition assay on isolated MHC molecules in the presence of a labelled marker peptide. The fact that of the n=12 peptides selected for binding to the rat DQ equivalent RT1.B^1, n=11 peptides also bind DRB1*0401, further confirms the promiscuous MHC binding of the selected peptides. This ensures a wide applicability of the peptides for prophylaxis, treatment, monitoring and/or diagnosis of the disease.
^ Indicated are the numbers of patients responding to tire peptides as defined in a 6-days proliferation assay on PBLs. Responses were considered positive if the proliferation (as measured by ^3H-thymidine incorporation) was >2 times background proliferation. Peptides were tested in concentrations of 1 μg/ml and 10 μ/ml.

[8] = molecular target: DRB1*0401 (Homo sapiens, UniProt P01903+P01911, A100K/A169T/F76Y/I96L/K127E/L162R/M171V/N62H/P40V/Q125Y/R42H/S133A/S149N/S66Y/V115G/V209L/W38E); experiment: MHC-peptide competition binding assay on isolated DRB1*0401 molecules; conditions: DRB1*0401 1 μM, biotinylated HA-marker peptide 100 nM, peptide 0-256 μM; read-out: DRB1*0401 binding (IC50)
Method: T-cell responses to the selected peptides in patients are analysed by studying T-cell proliferation of peripheral blood lymphocytes (PBL) and synovial fluid derived cells. […] In these human studies the peptides are tested as 15-mers containing the 9-mer sequence of Table 2 as core sequence. […] The MHC binding affinity of the selected peptides is analysed for the most-common MHC class II-arthritis associations. […] The peptide binding affinity is tested in a MHC-peptide competition assay on isolated MHC molecules in the presence of a labelled marker peptide.
# MHC-peptide binding was measured as described in Wauben et al., Int. Immunol. […] Peptide binding is expressed as tire IC50.

Question: “LKSVNGQIE (listed as Rattus sp.) [SEQ ID NO: 15]” was tested. Which Day of onset [1] did it give?
Answer: The Day of onset was 15.0 ± 1.7.

Question: And the “Protective effect in adjuvant arthritis upon nasal administration” value ([1]; in words)?
Answer: Its value is “protective effect”.

Question: What about the Arthritis score [1] of the same sequence?
Answer: Its Arthritis score is 4.3 ± 4.8.

Question: What about the DTH reaction [2] of the same sequence?
Answer: The DTH reaction was 2/2.

Question: And the “Arthritis Induction” value [3]?
Answer: Its value is 0/4.

Question: What about the “Recognition by T cell clone A2b” value [4] of the same sequence?
Answer: Its value is “positive”.

Question: Which DTH reaction [2] does the source give for “VQTAVTNID (listed as Rattus sp.) [SEQ ID NO: 53]” here?
Answer: Its DTH reaction is 2/2.

Question: And the “T-cell recognition during adjuvant arthritis” value [5]?
Answer: The value was “positive”.

Question: And the “Arthritis Induction” value [3]?
Answer: Its value is 0/4.

Question: How did the IC50 [6] turn out when TFGLQAELT [SEQ ID NO: 9, TFGLQAELT] was run?
Answer: The IC50 was 32 to 64 µM.

Question: With “NAMLKSICEVLDLER [SEQ ID NO: 81, NAMLKSICEVLDLER]” as the sequence, how does the “JCA patients responding (n = 6 tested)” value [7] read?
Answer: The value was 1.

Question: What about the “RA patients responding (n = 39 tested)” value [7] of the same sequence?
Answer: Its value is 2.

Question: What about the IC50 [8] of the same sequence?
Answer: The IC50 was greater than 256 µM.

Question: With TAGLQLELT [SEQ ID NO: 5, TAGLQLELT] as the sequence, how does the IC50 [6] read?
Answer: The IC50 was 64 to 128 µM.

Question: “FFYFFTGSSQLEFDP [SEQ ID NO: 70, FFYFFTGSSQLEFDP]” was tested. Which “JCA patients responding (n = 6 tested)” value [7] did it give?
Answer: The value was 2.

Question: And the “RA patients responding (n = 39 tested)” value [7]?
Answer: Its value is 29^.

Question: What about the IC50 [8] of the same sequence?
Answer: Its IC50 is less than 8 µM.

Question: For TFGLQLELA [SEQ ID NO: 12, TFGLQLELA], which IC50 [6] is on record?
Answer: The IC50 was 32 to 64 µM.

Question: For TFGLALELT [SEQ ID NO: 8, TFGLALELT], which IC50 [6] is on record?
Answer: Its IC50 is greater than 256 µM.

Question: What does the source list for “WPSLPSNMD (listed as Rattus sp.) [SEQ ID NO: 48]”?
Answer: Day of onset [1]: 13.3 ± 1.0; Arthritis score [1]: 10.5 ± 1.7; DTH reaction [2]: 0/2; Arthritis Induction [3]: 1/4

Question: With AFGLQLELT [SEQ ID NO: 4, AFGLQLELT] as the sequence, how does the IC50 [6] read?
Answer: The IC50 was 64 to 128 µM.

Question: How did the IC50 [6] turn out when TFGLQLEAT [SEQ ID NO: 11, TFGLQLEAT] was run?
Answer: Its IC50 is 32 to 64 µM.

Question: Which results are given for “WPSLPSGLD (listed as Rattus sp.) [SEQ ID NO: 50]”?
Answer: Day of onset [1]: 14.3 ± 2.0; Arthritis score [1]: 11.3 ± 3.8; DTH reaction [2]: 0/2; T-cell recognition during adjuvant arthritis [5]: positive; Arthritis Induction [3]: 2/4

Question: Which IC50 [6] does the source give for TFGLQLALT [SEQ ID NO: 10, TFGLQLALT] here?
Answer: The IC50 was 128 to 256 µM.

Question: For “SSFWPSLPSGVDAAY [SEQ ID NO: 73, SSFWPSLPSGVDAAY]”, which “RA patients responding (n = 39 tested)” value [7] is on record?
Answer: Its value is 4.

Question: What about the IC50 [8] of the same sequence?
Answer: Its IC50 is 16 to 32 µM.

Question: What does the source list for “VSSFSLNVE (listed as Rattus sp.) [SEQ ID NO: 26]”?
Answer: Day of onset [1]: 13.0 ± 0; Arthritis score [1]: 11.0 ± 3.5; DTH reaction [2]: 2/2; Arthritis Induction [3]: 0/4; Recognition by T cell clone A2b [4]: positive

Question: With TFALQLELT [SEQ ID NO: 6, TFALQLELT] as the sequence, how does the IC50 [6] read?
Answer: The IC50 was 32 to 64 µM.

Question: “TFGLQLELT [SEQ ID NO: 3, TFGLQLELT, reference compound]” was tested. Which IC50 [6] did it give?
Answer: The IC50 was 32 to 64 µM.

Question: With TFGAQLELT [SEQ ID NO: 7, TFGAQLELT] as the sequence, how does the IC50 [6] read?
Answer: The IC50 was 8 to 16 µM.

Question: With “SAFWPSLPSYLDAAY [SEQ ID NO: 71, SAFWPSLPSYLDAAY]” as the sequence, how does the “RA patients responding (n = 39 tested)” value [7] read?
Answer: The value was 4.

Question: And the IC50 [8]?
Answer: The IC50 was 8 to 16 µM.
